Values quoted from earlier work in patent US20100227921A1, “AMINO ACID AND PEPTIDE CARBAMATE PRODRUGS OF […] USES THEREOF” (SHIRE LLC, priority 2009, published 2010).

Key:
[1] = cited from earlier work
[2] = 75 mg immediate release dosage; Afilalo et al. 2008; cited from earlier work

## CC[C@@H](c1cccc(O)c1)[C@@H](C)CN(C)C (racemic) [Tapentadol, (−)-(1R,2R)-3-(3-dimethyl-amino-1-ethyl-2-methyl-propyl)-phenol]
[1]; Terlinden et al. (2007)
  clearance (printed C1): 1468 ± 122 mL/min
[1]; humans
  plasma half-life: 4.5 h
[2]
  patients with nausea/vomiting: 30-35%
  treated patients with constipation: ~11%
